Values quoted from earlier work in patent US20260248891A1, “TIRZEPATIDE COMPOSITIONS AND USE” (Eli Lilly and Company, priority 2022, published 2026).

Tested on: patients with obesity or overweight
Settings: Phase 3 study, currently approved doses

tirzepatide
weight loss: 15.7%
